Here are results for eleven compounds from patent US20140018347A1, “BENZOXAZEPINES AS INHIBITORS OF mTOR AND METHODS OF THEIR USE AND MANUFACTURE” (Exelixis, Inc., priority 2010, published 2014).

The target of one assay is mTORC1 (Homo sapiens, UniProt P42345). Put plainly: mTOR/GbL/Raptor (mTORC1) ELISA Assay. Format: biochemical. The following applies: phosphorylation of 4E-BP1; 0.2 nM mTORC1, 10 μM ATP. The method, then:
The measurement of mTORC1 enzyme activity was performed in an ELISA assay format following the phosphorylation of 4E-BP1 protein. All experiments were performed in the 384-well format. Generally, 0.5 μL DMSO containing varying concentrations of the test compound was mixed with 15 μL enzyme solution. Kinase reactions were initiated with the addition of 15 μL of substrates-containing solution. The assay conditions were as follows; 0.2 nM mTORC1, 10 μM ATP and 50 nM NHis-tagged 4E-BP1 in 20 mM Hepes, pH 7.2, 1 mM DTT, 50 mM NaCl, 10 mM MnCl2, 0.02 mg/mL BSA, 0.01% CHAPS, 50 mM β-glycerophosphate. Following an incubation of 120 minutes at ambient temperature, 20 μL of the reaction volume was transferred to a Ni-Chelate-coated 384-well plate. The binding step of the 4E-BP1 protein proceeded for 60 minutes, followed by washing 4 times each with 50 μL of Tris-buffered saline solution (TBS). Anti-phospho-4E-BP1 rabbit-IgG (20 μL, 1:5000) in 5% BSA-TBST (0.2% Tween-20 in TBS) was added and further incubated for 60 minutes. Incubation with a secondary HRP-tagged anti-IgG was similarly performed after washing off the primary antibody (4 washes of 50 μL). Following the final wash step with TBST, 20 μL of SuperSignal ELISA Femto (Pierce Biotechnology) was added and the luminescence measured using an EnVision plate reader.
On the technique in general: In an ELISA, binding on a coated surface is turned into a signal by an enzyme label.

For another assay, the target named is PI3Kalpha (Homo sapiens, UniProt P42336). Nature of the assay: PI3K Biochemical Assays (PI3K-alpha assay). The conditions noted are these: ATP consumption, luciferase-luciferin; 1 μM ATP, 10 μM PIP2. The procedure: PI3Kn activity was measured as the percent of ATP consumed following the kinase reaction using luciferase-luciferin-coupled chemiluminescence. Reactions were conducted in 384-well white, medium binding microtiter plates (Greiner). Kinase reactions were initiated by combining test compounds, ATP, substrate (PIP2), and kinase in a 20 μL volume in a buffer solution. The standard PI3Kalpha assay buffer was composed 50 mM Tris, pH 7.5, 1 mM EGTA, 10 mM MgCl2, 1 mM DTT and 0.03% CHAPS. The standard assay concentrations for enzyme, ATP, and substrate were 3 nM, 1 μM, and 10 μM, respectively. The reaction mixture was incubated at ambient temperature for approximately 2 h. Following the kinase reaction, a 10 μL aliquot of luciferase-luciferin mix (Promega Kinase-Glo) was added and the chemiluminescence signal measured using a Victor2 or EnVision (Perkin Elmer). Total ATP consumption was limited to 40-60% and IC50 values of control compounds correlate well with literature references. Substituting PI3Kα with PI3Krβ, PI3Kγ, or PI3Kδ, the inhibitory activity of the compounds for the other isoforms of PI3K were measured. For the PI3Kβ and PI3Kδ assays, enzyme concentrations were 10 nM and 4 nM, respectively. For the PI3Kγ assay, enzyme concentration was 40 nM, the incubation time was 1 h, and the concentration of MgCl2 in the assay buffer was 5 mM.
PI3Kalpha, sequence (P42336 whole entry): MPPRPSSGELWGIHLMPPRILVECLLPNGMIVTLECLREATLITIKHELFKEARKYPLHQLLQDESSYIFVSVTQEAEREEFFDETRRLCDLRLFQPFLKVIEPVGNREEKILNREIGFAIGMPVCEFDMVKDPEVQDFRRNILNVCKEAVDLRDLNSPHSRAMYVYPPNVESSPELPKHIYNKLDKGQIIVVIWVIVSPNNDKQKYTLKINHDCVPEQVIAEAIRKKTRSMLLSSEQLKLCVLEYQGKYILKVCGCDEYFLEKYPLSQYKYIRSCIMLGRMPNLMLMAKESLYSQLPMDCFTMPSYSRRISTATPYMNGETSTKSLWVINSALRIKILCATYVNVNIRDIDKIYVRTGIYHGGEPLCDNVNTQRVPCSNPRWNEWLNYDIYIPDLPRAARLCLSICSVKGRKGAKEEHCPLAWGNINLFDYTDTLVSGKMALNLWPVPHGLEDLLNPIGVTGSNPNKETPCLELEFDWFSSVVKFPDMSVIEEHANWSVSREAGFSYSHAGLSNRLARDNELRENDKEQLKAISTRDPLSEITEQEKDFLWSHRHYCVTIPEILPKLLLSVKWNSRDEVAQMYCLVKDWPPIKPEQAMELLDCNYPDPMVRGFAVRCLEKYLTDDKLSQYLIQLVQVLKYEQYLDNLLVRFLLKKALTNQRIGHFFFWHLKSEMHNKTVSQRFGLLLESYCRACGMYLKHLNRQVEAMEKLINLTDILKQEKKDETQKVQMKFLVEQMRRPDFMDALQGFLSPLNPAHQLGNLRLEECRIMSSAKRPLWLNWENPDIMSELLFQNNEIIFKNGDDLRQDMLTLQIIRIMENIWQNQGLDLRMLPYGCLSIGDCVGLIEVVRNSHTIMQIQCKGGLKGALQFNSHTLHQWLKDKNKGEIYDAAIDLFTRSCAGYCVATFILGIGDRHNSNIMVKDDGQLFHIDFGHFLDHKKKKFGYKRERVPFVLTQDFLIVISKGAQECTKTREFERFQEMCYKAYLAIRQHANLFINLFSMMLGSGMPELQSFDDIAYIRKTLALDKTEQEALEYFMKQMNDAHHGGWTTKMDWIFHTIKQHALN
PI3Kalpha, sequence (P27986 whole entry partner): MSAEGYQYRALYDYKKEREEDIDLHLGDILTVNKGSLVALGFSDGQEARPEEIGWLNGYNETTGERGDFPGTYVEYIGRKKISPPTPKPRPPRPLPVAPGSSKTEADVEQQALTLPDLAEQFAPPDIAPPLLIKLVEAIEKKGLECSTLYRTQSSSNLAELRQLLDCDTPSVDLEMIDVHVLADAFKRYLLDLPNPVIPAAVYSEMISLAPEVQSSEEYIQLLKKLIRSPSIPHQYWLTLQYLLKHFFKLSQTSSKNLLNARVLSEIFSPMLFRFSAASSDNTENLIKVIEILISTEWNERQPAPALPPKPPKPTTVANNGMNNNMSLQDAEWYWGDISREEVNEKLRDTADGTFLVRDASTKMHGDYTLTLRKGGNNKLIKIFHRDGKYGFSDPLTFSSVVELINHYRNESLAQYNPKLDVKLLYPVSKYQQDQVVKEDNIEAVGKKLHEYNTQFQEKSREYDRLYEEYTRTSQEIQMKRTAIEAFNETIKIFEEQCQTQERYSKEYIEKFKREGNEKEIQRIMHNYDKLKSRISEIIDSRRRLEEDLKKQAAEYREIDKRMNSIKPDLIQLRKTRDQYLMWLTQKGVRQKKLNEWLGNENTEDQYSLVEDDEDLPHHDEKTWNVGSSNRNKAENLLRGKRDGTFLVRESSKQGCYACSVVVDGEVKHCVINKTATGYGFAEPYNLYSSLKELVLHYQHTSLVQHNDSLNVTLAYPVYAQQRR

Consider `Cc1nc(N)nc(N2CCOc3c(F)cc(-c4cnc5sc(N)nc5c4)cc3C2)c1C(C)C` [Compound 101, 6-{4-[2-amino-6-methyl-5-(1-methylethyl)pyrimidin-4-yl]-9-fluoro-2,3,4,5-tetrahydro-1,4-benzoxazepin-7-yl}[1,3]thiazolo[5,4-b]pyridin-2-amine], for which the IC50 against mTORC1 and against PI3Kalpha was no more than 0.1 µM throughout.

In the case of `Cc1cnc(N)nc1N1CCOc2ccc(-c3cnc4sc(N)nc4c3)cc2C1` [Compound 35, 6-[4-(2-amino-5-methylpyrimidin-4-yl)-2,3,4,5-tetrahydro-1,4-benzoxazepin-7-yl][1,3]thiazolo[5,4-b]pyridin-2-amine], the half-inhibitory concentration (IC50) (as a rule, the concentration that inhibits the measured activity by half) at mTORC1 was 0.1 to 0.5 µM; at PI3Kalpha it was no more than 0.1 µM.

For `Cc1cc(N2CCOc3ccc(-c4cnc5sc(N)nc5c4)cc3C2)nc(N)n1` [Compound 46, 6-[4-(2-amino-6-methylpyrimidin-4-yl)-2,3,4,5-tetrahydro-1,4-benzoxazepin-7-yl][1,3]thiazolo[5,4-b]pyridin-2-amine], the 50% inhibitory concentration (IC50) fell in the range of 0.5 to 2.5 µM against mTORC1 and 0.1 to 0.5 µM at PI3Kalpha.

With `Cc1nc(N)nc(N2CCOc3ccc(-c4cnc5sc(N)nc5c4)cc3C2)c1C1CC1` [Compound 41, 6-[4-(2-amino-5-cyclopropyl-6-methylpyrimidin-4-yl)-2,3,4,5-tetrahydro-1,4-benzoxazepin-7-yl][1,3]thiazolo[5,4-b]pyridin-2-amine], the figures for the IC50 against mTORC1 and on PI3Kalpha were 0.5 to 2.5 µM and 0.1 to 0.5 µM, respectively.

Regarding `N#Cc1cnc(N)nc1N1CCOc2ccc(-c3cnc4sc(N)nc4c3)cc2C1` [Compound 79, 2-amino-4-[7-(2-amino[1,3]thiazolo[5,4-b]pyridin-6-yl)-2,3-dihydro-1,4-benzoxazepin-4(5H)-yl]pyrimidine-5-carbonitrile], the IC50 at mTORC1 was 0.1 to 0.5 µM; against PI3Kalpha it was no more than 0.1 µM.

With `Nc1cc(Cl)nc(N2CCOc3ccc(-c4cnc5sc(N)nc5c4)cc3C2)n1` [Compound 50, 6-[4-(4-amino-6-chloropyrimidin-2-yl)-2,3,4,5-tetrahydro-1,4-benzoxazepin-7-yl][1,3]thiazolo[5,4-b]pyridin-2-amine], the IC50 at mTORC1 and against PI3Kalpha was 0.1 to 0.5 µM throughout.

Take `CC(O)c1c(Cl)nc(N)nc1N1CCOc2ccc(-c3cnc4sc(N)nc4c3)cc2C1` (stereo not shown) [Compound 53, 1-{2-amino-4-[7-(2-amino[1,3]thiazolo[5,4-b]pyridin-6-yl)-2,3-dihydro-1,4-benzoxazepin-4(5H)-yl]-6-chloropyrimidin-5-yl}ethanol]: the concentration for half-maximal inhibition (IC50) against mTORC1 and at PI3Kalpha was no more than 0.1 µM each time.

For the compound `Cc1nc(CN(C)C)nc(N2CCOc3ccc(-c4cnc5sc(N)nc5c4)cc3C2)c1Br` [Compound 64, 6-(4-{5-bromo-2-[(dimethylamino)methyl]-6-methylpyrimidin-4-yl}-2,3,4,5-tetrahydro-1,4-benzoxazepin-7-yl)[1,3]thiazolo[5,4-b]pyridin-2-amine], the IC50 was 0.5 to 2.5 µM at mTORC1 and no more than 0.1 µM against PI3Kalpha.

For the compound `C#Cc1c(C)nc(N)nc1N1CCOc2ccc(-c3cnc4sc(N)nc4c3)cc2C1` [Compound 74, 6-[4-(2-amino-5-ethynyl-6-methylpyrimidin-4-yl)-2,3,4,5-tetrahydro-1,4-benzoxazepin-7-yl][1,3]thiazolo[5,4-b]pyridin-2-amine], the IC50 against mTORC1 and at PI3Kalpha was no more than 0.1 µM in each case.

`CCc1c(Cl)nc(N)nc1N1CCOc2ccc(-c3cnc4sc(N)nc4c3)cc2C1` [Compound 7, 6-[4-(2-amino-6-chloro-5-ethylpyrimidin-4-yl)-2,3,4,5-tetrahydro-1,4-benzoxazepin-7-yl][1,3]thiazolo[5,4-b]pyridin-2-amine]: the IC50 against mTORC1 and on PI3Kalpha was no more than 0.1 µM throughout.

Consider `COc1nc(N)nc(N2CCOc3ccc(-c4cnc5sc(N)nc5c4)cc3C2)c1C` [Compound 67], for which the half-inhibitory concentration (IC50) was 0.1 to 0.5 µM against mTORC1 and no more than 0.1 µM against PI3Kalpha.
